In ChEMBL document CHEMBL5154733, “Targeting NLRP3 signaling by a novel-designed sulfonylurea compound for inhibition of microglial inflammation” (Bioorg Med Chem, 2022):
The source made the active and inactive calls. No cut-off for these calls is given here.

Columns and labels:
[1] = tested on: N9; assay: Inhibition of LPS-induced of NLRP3 expression in mouse N9 cells at 0.7 to 2.8 uM incubated for 24 hrs dosed 24 hrs after LPS stimulation by Quantitative PCR assay; assay type: functional; conditions: dose 0.7-2.8 µM, DDE = dose-dependent effect
[2] = Inhibition of LPS-induced of NLRP3 expression in mouse N9 cells assessed as NLRP3 expression level at 0.7 uM incubated for 24 hrs dosed 24 hrs after LPS stimulation by Quantitative PCR assay; assay type: functional; set-up: scale not given: the % may be the effect or the level left
[3] = Inhibition of LPS-induced of NLRP3 expression in mouse N9 cells assessed as NLRP3 expression level at 1.4 uM incubated for 24 hrs dosed 24 hrs after LPS stimulation by Quantitative PCR assay; assay type: functional; set-up: scale not given: the % may be the effect or the level left
[4] = Inhibition of LPS-induced of NLRP3 expression in mouse N9 cells assessed as NLRP3 expression level at 2.8 uM incubated for 24 hrs dosed 24 hrs after LPS stimulation by Quantitative PCR assay; assay type: functional; set-up: scale not given: the % may be the effect or the level left
[5] = tested on: N9; assay: Inhibition of LPS-induced of NLRP3 expression in mouse N9 cells at 2.8 uM incubated for 24 hrs dosed 24 hrs after LPS stimulation by Western blot; assay type: functional
[6] = tested on: N9; assay: Inhibition of LPS-induced of iNOS expression in mouse N9 cells at 2.8 uM incubated for 24 hrs dosed 24 hrs after LPS stimulation by Western blot; assay type: functional
[7] = tested on: N9; assay: Inhibition of LPS-induced of nitric oxide production in mouse N9 cells at 2.8 uM incubated for 24 hrs dosed 24 hrs after LPS stimulation by DAF-FM dye based fluorescence assay; assay type: functional
[8] = Toxicity in mouse N9 cells assessed as effect on cell viability at 0.35 to 5.6 uM incubated for 24 hrs by MTT assay; assay type: cell-based; conditions: n9, 24 h, dose 0.35-5.6 µM
[9] = tested on: N9; assay: Inhibition of LPS-induced Caspase-1 expression in mouse N9 cells at 2.8 uM incubated for 24 hrs dosed 24 hrs after LPS stimulation by FLICA 660 Caspase-1 assay; assay type: functional
[10] = Inhibition of LPS-induced of IL-1beta expression in mouse N9 cells assessed as relative IL-1beta expression at 2.8 uM incubated for 24 hrs dosed 24 hrs after LPS stimulation by Quantitative PCR assay (reference value: 7 fold); assay type: functional
[11] = Inhibition of LPS-induced of IL-1beta expression in mouse N9 cells assessed as IL-1beta level at 2.8 uM incubated for 24 hrs dosed 24 hrs after LPS stimulation by ELISA (reference value: 100 pg/ml); assay type: functional
[12] = tested on: N9; assay: Inhibition of LPS-induced of TNF-alpha expression in mouse N9 cells at 2.8 uM incubated for 24 hrs dosed 24 hrs after LPS stimulation by ELISA; assay type: functional
[13] = tested on: N9; assay: Inhibition of LPS-induced of phagocytosis in mouse N9 cells assessed as decrease in intracellular FAM-Abeta42 fluorescent intensity at 2.8 uM incubated for 24 hrs dosed 24 hrs after LPS stimulation by FAM-labeled fluorescent Abeta-42 peptide based fluorescence assay; assay type: functional
[14] = tested on: N9; assay: Inhibition of LPS-induced of phagocytosis in mouse N9 cells assessed as decrease in FAM positive cell number at 2.8 uM incubated for 24 hrs dosed 24 hrs after LPS stimulation by FAM-labeled fluorescent Abeta-42 peptide based fluorescence assay; assay type: functional
[15] = Stabilization of microglia morphology in mouse N9 cells assessed as resting morphology level at 2.8 uM incubated for 24 hrs dosed 24 hrs after LPS stimulation by (reference value: 18%); assay type: functional
[16] = tested on: Brain; assay: Suppression of microglia activation in C57BL/6 mouse brain assessed as maintenance of microglia morphology by measuring Iba1 positive cells in cerebral cortex area at 55 mg/kg, ip by immunofluorescence staining; assay type: functional, organism-based
[17] = tested on: Brain; assay: Suppression of microglia activation in C57BL/6 mouse brain assessed as maintenance of microglia morphology by measuring Iba1 positive cell number in cerebral cortex positive cells in cerebral cortex area at 55 mg/kg, ip by immunofluorescence staining; assay type: functional, organism-based

## O=C1N(c2cncnc2)CCCN1S(=O)(=O)c1ccc(C(F)(F)F)cc1
[1]
  inhibition: Dde
[2]
  Activity: 370%
[3]
  Activity: 220%
[4]
  Activity: 100%
[5]
  inhibition: Active
[6]
  inhibition: Active
[7]
  inhibition: Active
[8]
  Activity: Non-Toxic
[9]
  inhibition: Active
[10]
  fold change (FC): 2
[11]
  Activity: 70 pg/mL
[12]
  inhibition: Active
[13]
  inhibition: Active
[14]
  inhibition: Active
[15]
  Activity: 65%
[16]
  Activity: Active
[17]
  Activity: Active
